Earlier results on three molecules are cited in patent US7056858B2 (Varian, Inc., priority 2002, dated 2006).

For this data set the following is noted: for π value: dipolarity/dipolarizability descriptor; for Σα value: hydrogen-bond acidity descriptor; for Σβ value: hydrogen-bond basicity descriptor.

As to `NC=O` [formamide], the π value is reported as 0.46, the Σα value is 0.33 and the Σβ value is on record as 0.21.
As for `CN1CCCC1=O` [N-methylpyrrolidone], the π value is listed as 0.57, the Σα value is listed as 0.00 and the Σβ value is reported as 0.43.
As to `CN(C)C=O` [N,N dimethylformamide], the π value is recorded as 0.56, the Σα value is given as 0.00 and the Σβ value is on record as 0.44.
